From US9139581B2 (PORTOLA PHARMACEUTICALS, INC., priority 2008, dated 2015)

These compounds were tested against T1, full length active recombinant SYK enzyme (Homo sapiens, UniProt P43405) (assay: Inhibition of Syk tyrosine phosphorylation activity (LANCE TR-FRET)). Details: Table 3; 1 nM SYK, 100 μM ATP; read-out: Syk IC50 code.
T1 construct: full length active recombinant SYK enzyme (Millipore, Calif.); purchased Millipore
Format: biochemical
Experimental: The in vitro and in vivo human syk activities of the inventive compounds can be determined by various procedures known in the art, such as a test for their ability to inhibit the activity of human plasma syk. […] Inhibition of Syk Tyrosine Phosphorylation Activity Potency of candidate molecules for inhibiting syk tyrosine phosphorylation activity is assessed by measuring the ability of a test compound to inhibit syk-mediated tyrosine phosphorylation of a syk-specific substrate. SYK tyrosine phosphorylation activity is measured using the LANCETM Technology developed by Perkin Elmer Life and Analytical Sciences (Boston, Mass.). LANCETM refers to homogeneous time resolved fluorometry applications using techniques such as time-resolved fluorescence resonance energy transfer assay (TR-FRET) (see generally for procedures in Perkin Elmer Application Note-How to Optimize a Tyrosine Kinase Assay Using Time Resolved Fluorescence-Based LANCE Detection, wwww.perkinelmer.com/lifesciences). The assay principle involves detection of a phosphorylated substrate using energy transfer from a phosphospecific europium-labeled antibody to streptavidin-allophycocyanin as an acceptor. To test the ability of candidate molecules to inhibit SYK tyrosine phosphorylation activity, molecules are reconstituted in 30% DMSO and serially diluted 1:3 with the final dilution containing DMSO in the absence of the candidate molecule. The final DMSO concentration in the assay is 3%. Kinase assays are performed as a two part reaction. The first reaction is a kinase reaction and which comprises of a candidate molecule, full length active recombinant SYK enzyme (Millipore, Calif.) and biotin-labeled SYK-specific substrate biotin-[…]-OH. The second reaction involves termination of the kinase reaction and the simultaneous addition of the detection reagents-europium-labeled anti-phosphotyrosine reagent (Eu-W1024-PY100, Perkin Elmer, Boston, Mass.) and Streptavidin-Allophycocyanin detection reagent (SA-APC, Prozyme, Calif.). The kinase reaction is performed in a black U-bottom 96-well microtitre plate. […] The reaction is allowed to proceed for 1 hour at room temperature. […] The detection reagents are added to the reaction mixture at the following dilutions-1:500 for Eu-W1024-PY100 and 1:250 for SA-APC. The kinase reaction is terminated by the addition of 50 μL quench buffer containing the detection reagents. The detection is allowed to proceed for 1 hr at room temperature. Detection of the phosphorlated substrate in the absence and presence of inhibitors is measured in the TR-FRET instrument, Analyst HT ([…], Sunnyvale, Calif.) and the condition for measurements are set up using CriterionHost Release 2.0 ([…], Sunnyvale, Calif.). […] IC50s were derived by non-linear regression analysis.

Row | SMILES | IC50
1 | NC(=O)NCC1CCN(c2nc(Nc3ccc4c(c3)CCC(=O)N4)ncc2F)CC1 [Example 37, 1-((1-(5-fluoro-2-(2-oxo-1,2,3,4-tetrahydroquinolin-6-ylamino)pyrimidin-4-yl)piperidin-4-yl)methyl)urea] | 100 to 1000 nM
2 | CC(=O)N1CCN(c2ccc(Nc3ncc(F)c(N4CCC(CO)CC4)n3)cc2)CC1 [Example 38, 1-(4-(4-(5-fluoro-4-(4-(hydroxymethyl)piperidin-1-yl)pyrimidin-2-ylamino)phenyl)piperazin-1-yl)ethanone] | > 1000 nM
3 | O=C1CCc2cc(Nc3ncc(F)c(N4CCC(CO)CC4)n3)ccc2N1 [Example 39, 6-(5-fluoro-4-(4-(hydroxymethyl)piperidin-1-yl)pyrimidin-2-ylamino)-3,4-dihydroquinolin-2(1H)-one] | 100 to 1000 nM
4 | N#Cc1c[nH]c2nc(Nc3ccc4cn[nH]c4c3)nc(NC3CC3)c12 [Example 40, 2-(1H-indazol-6-ylamino)-4-(cyclopropylamino)-7H-pyrrolo[2,3-d]pyrimidine-5-carbonitrile] | 10 to 100 nM
5 | CCCCOC(C)c1c[nH]c2nc(Nc3ccc4cn[nH]c4c3)nc(NC3CC3)c12 (stereo not shown) [Example 41, 5-(1-butoxyethyl)-N4-cyclopropyl-N2-(1H-indazol-6-yl)-7H-pyrrolo[2,3-d]pyrimidine-2,4-diamine] | 100 to 1000 nM
6 | CC(=O)c1c[nH]c2nc(Nc3ccc4cn[nH]c4c3)nc(NC3CC3)c12 [Example 42, 1-(2-(1H-indazol-6-ylamino)-4-(cyclopropylamino)-7H-pyrrolo[2,3-d]pyrimidin-5-yl)ethanone] | 100 to 1000 nM
7 | c1cc(-c2c[nH]c3nc(Nc4ccc5cn[nH]c5c4)nc(NC4CC4)c23)ccn1 [Example 43, N4-cyclopropyl-N2-(1H-indazol-6-yl)-5-(pyridin-4-yl)-7H-pyrrolo[2,3-d]pyrimidine-2,4-diamine] | 100 to 1000 nM
8 | CC(=O)N1CCN(c2ccc(Nc3nc(NCC4CCNCC4)c4c(-c5ccncc5)c[nH]c4n3)cc2)CC1 [Example 44, 1-(4-(4-(4-(piperidin-4-ylmethylamino)-5-(pyridin-4-yl)-7H-pyrrolo[2,3-d]pyrimidin-2-ylamino)phenyl)piperazin-1-yl)ethanone] | > 1000 nM
9 | CC(=O)N1CCN(c2ccc(Nc3nc(NCC4CCNCC4)c4c(C#N)c[nH]c4n3)cc2)CC1 [Example 45, 2-(4-(4-acetylpiperazin-1-yl)phenylamino)-4-(piperidin-4-ylmethylamino)-7H-pyrrolo[2,3-d]pyrimidine-5-carbonitrile] | 100 to 1000 nM
10 | CC(=O)N(C)c1ccc(Nc2nc(NC3CC3)c3c(-c4ccncc4)c[nH]c3n2)cc1 [Example 47, N-(4-(4-(cyclopropylamino)-5-(pyridin-4-yl)-7H-pyrrolo[2,3-d]pyrimidin-2-ylamino)phenyl)-N-methylacetamide] | 10 to 100 nM
11 | O=C1CCc2cc(Nc3nc(NC4CC4)c4c(-c5ccncc5)c[nH]c4n3)ccc2N1 [Example 48, 6-(4-(cyclopropylamino)-5-(pyridin-4-yl)-7H-pyrrolo[2,3-d]pyrimidin-2-ylamino)-3,4-dihydroquinolin-2(1H)-one] | 10 to 100 nM
12 | Brc1c[nH]c2nc(Nc3ccc4cn[nH]c4c3)nc(NC3CCC3)c12 [Example 49, 5-bromo-N4-cyclobutyl-N2-(1H-indazol-6-yl)-7H-pyrrolo[2,3-d]pyrimidine-2,4-diamine] | 1 to 10 nM
13 | Clc1c[nH]c2nc(Nc3ccc4cn[nH]c4c3)nc(NC3CCC3)c12 [Example 50, 5-chloro-N4-cyclobutyl-N2-(1H-indazol-6-yl)-7H-pyrrolo[2,3-d]pyrimidine-2,4-diamine] | 1 to 10 nM
14 | O=C1CNc2nc(Nc3ccc4cn[nH]c4c3)nc(NC3CCC3)c21 [Example 51, 2-(1H-indazol-6-ylamino)-4-(cyclobutylamino)-6,7-dihydropyrrolo[2,3-d]pyrimidin-5-one] | 100 to 1000 nM
15 | O=S(=O)(c1ccc(Nc2nc(NC3CCC3)c3cc[nH]c3n2)cc1)N1CCC(O)CC1 [Example 52, 1-(4-(4-(cyclobutylamino)-7H-pyrrolo[2,3-d]pyrimidin-2-ylamino)phenylsulfonyl)piperidin-4-ol] | 10 to 100 nM
16 | CCCCOC(=O)CN(C)S(=O)(=O)c1ccc(Nc2nc(NC3CCC3)c3cc[nH]c3n2)cc1 [Example 53, butyl 2-(4-(4-(cyclobutylamino)-7H-pyrrolo[2,3-d]pyrimidin-2-ylamino)-N-methylphenylsulfonamido)acetate] | 100 to 1000 nM
17 | NC(=O)CNS(=O)(=O)c1ccc(Nc2nc(NC3CCC3)c3cc[nH]c3n2)cc1 [Example 54, 2-(4-(4-(cyclobutylamino)-7H-pyrrolo[2,3-d]pyrimidin-2-ylamino)phenylsulfonamido)acetamide] | 10 to 100 nM
18 | CN(CC(=O)O)S(=O)(=O)c1ccc(Nc2nc(NC3CCC3)c3cc[nH]c3n2)cc1 [Example 55, 2-(4-(4-(cyclobutylamino)-7H-pyrrolo[2,3-d]pyrimidin-2-ylamino)-N-methylphenylsulfonamido)acetic acid] | 10 to 100 nM
19 | OC1CCN(c2ccc(Nc3nc(NC4CCC4)c4cc[nH]c4n3)cc2)CC1 [Example 56, 1-(4-(4-(cyclobutylamino)-7H-pyrrolo[2,3-d]pyrimidin-2-ylamino)phenyl)piperidin-4-ol] | 10 to 100 nM
20 | CC(C)(C)OC(=O)N1CCC(Nc2nc(Nc3ccc4cn[nH]c4c3)nc3[nH]ccc23)CC1 [Example 57, tert-butyl 4-(2-(1H-indazol-6-ylamino)-7H-pyrrolo[2,3-d]pyrimidin-4-ylamino)piperidine-1-carboxylate] | > 1000 nM
21 | c1cc2c(NC3CCNCC3)nc(Nc3ccc4cn[nH]c4c3)nc2[nH]1 [Example 58, N2-(1H-indazol-6-yl)-N4-(piperidin-4-yl)-7H-pyrrolo[2,3-d]pyrimidine-2,4-diamine] | 100 to 1000 nM
22 | Cc1cc2c(NC3CCC3)nc(Nc3ccc4cn[nH]c4c3)nc2[nH]1 [Example 59, N4-cyclobutyl-N2-(1H-indazol-6-yl)-6-methyl-7H-pyrrolo[2,3-d]pyrimidine-2,4-diamine] | > 1000 nM
23 | CC(C)(CN)CNc1nc(Nc2ccc3cn[nH]c3c2)nc2[nH]ccc12 [Example 60, N4-(3-amino-2,2-dimethylpropyl)-N2-(1H-indazol-6-yl)-7H-pyrrolo[2,3-d]pyrimidine-2,4-diamine] | > 1000 nM
24 | c1cc2c(NCCCN3CCOCC3)nc(Nc3ccc4cn[nH]c4c3)nc2[nH]1 [Example 61, N2-(1H-indazol-6-yl)-N4-(3-morpholinopropyl)-7H-pyrrolo[2,3-d]pyrimidine-2,4-diamine] | > 1000 nM
25 | CC(=O)N(C)c1ccc(Nc2nc(NCCCCN)c3cc[nH]c3n2)cc1 [Example 62, N-(4-(4-(4-aminobutylamino)-7H-pyrrolo[2,3-d]pyrimidin-2-ylamino)phenyl)-N-methylacetamide] | 10 to 100 nM
26 | CC(=O)N(C)c1ccc(Nc2nc(NC3CCCCC3N)c3cc[nH]c3n2)cc1 (stereo not drawn) [Example 63, N-(4-(4-(2-aminocyclohexylamino)-7H-pyrrolo[2,3-d-]pyrimidin-2-ylamino)phenyl)-N-methylacetamide] | > 1000 nM
27 | CC(=O)N(C)c1ccc(Nc2nc(NCCN)c3cc[nH]c3n2)cc1 [Example 64, N-(4-(4-(2-aminoethylamino)-7H-pyrrolo[2,3-d]pyrimidin-2-ylamino)phenyl)-N-methylacetamide] | 100 to 1000 nM
28 | CC(=O)N(C)c1ccc(Nc2nc(NCCCCCN)c3cc[nH]c3n2)cc1 [Example 65, N-(4-(4-(5-aminopentylamino)-7H-pyrrolo[2,3-d-]pyrimidin-2-ylamino)phenyl)-N-methylacetamide] | 100 to 1000 nM

Same assay, conditions: Table 4; 1 nM SYK, 100 μM ATP; read-out: syk IC50

Row | SMILES | IC50
29 | CC(=O)N1CCN(c2ccc(Nc3ncc(F)c(N4CCCCC4CN)n3)cc2)CC1 (stereo not shown) [Example 34, 1-(4-(4-(4-(2-(aminomethyl)piperidin-1-yl)-5-fluoropyrimidin-2-ylamino)phenyl)piperazin-1-yl)ethanone] | > 1000 nM
30 | CC(C)(C)OC(=O)NCC1CCCCN1c1nc(Nc2ccc3cn[nH]c3c2)ncc1F (stereo not shown) [Example 35, tert-butyl (1-(2-(1H-indazol-6-ylamino)-5-fluoropyrimidin-4-yl)piperidin-2-yl)methylcarbamate] | > 1000 nM
31 | NCC1CCCCN1c1nc(Nc2ccc3cn[nH]c3c2)ncc1F (stereo not shown) [Example 36, N-(4-(2-(aminomethyl)piperidin-1-yl)-5-fluoropyrimidin-2-yl)-1H-indazol-6-amine] | > 1000 nM
